Earlier results as cited in US5439687A, “Dosage forms having zero-order dihydropyridine calcium antagonist release” (priority 1992, dated 1995).

Details: rapid influx rate with high plasma level peaks

For `COC(=O)C1=C(C)NC(C)=C(C(=O)OC)C1c1ccccc1[N+](=O)[O-]` [nifedipine], the “Side-effect rate and blood pressure lowering effectiveness” value is given as “associated with an increased side-effect rate (tachycardia) and reduced effectiveness in lowering blood pressure”.
